From patent US11426421B2, “Composition for preventing or improving inflammation including extract of seed of new soybean cultivar SCEL-1” (KOREA INSTITUTE OF SCIENCE AND TECHNOLOGY, priority 2018, dated 2022)

System: oxazolone-induced atopic dermatitis in mice
Experiment: Oxazolone-induced atopic dermatitis in mice, samples applied to the ear, ear thickness (H&E histology)
Assay type: in vivo, mouse
Settings: positive control group (Dexa), concentration not given; FIG. 2
Procedure: In a mouse, oxazolone was administered thereto to induce an oxazolone-induced atopic dermatitis. Then, the effect of the extract of the selected cultivar on atopic dermatitis was examined.
In detail, mice (male, 20 g, 8-week-old, Central Lab. Animal Inc.) was divided into a group of 6, and each group was named as a control group, a induction group (Vehicle), a positive control group (Dexa), a soybean SCEL-1 0.1% (w/v)-treated group, a soybean SCEL-1 0.3% (w/v)-treated group, a SCEL-1 1.0% (w/v)-treated group, and a general black soybean (available from Nonghyup of Gangneungkyo-1-dong) 1.0% (w/v)-treated group. Each sample was prepared in the same manner as in Section (1).
To induce atopic dermatitis in mice, 40 μl of 1% oxazolone per ear was applied once a day. After one week and starting from the eighth day, 40 μl of 1% oxazolone per ear was applied on alternate days for three weeks. In addition, starting from the eighth day, in addition to the oxazolone application, samples were also applied twice a day. Immediately after the experiment, a tissue of the ear was immobilized in 10% paraformaldehyde for 24 hours or more, and then, immersed in paraffin to form a block. The block was then fixed, and cut to a thickness of 10 μm by using a microtome that enables cutting to a constant thickness. […]

C[C@@H]1C[C@H]2[C@@H]3CCC4=CC(=O)C=C[C@]4(C)[C@@]3(F)[C@@H](O)C[C@]2(C)[C@@]1(O)C(=O)CO [dexamethanosone]
ear thickness of the mouse having oxazolone-induced atopic dermatitis: reduced to a thickness near the normal level
